Assay results from patent publication US20100055133A1, “PHARMACEUTICAL COMPOSITIONS” (Biovail Laboratories International (Barbados) S.R.L, priority 2008, published 2010).

Experiment: Tetrabenazine solubility across the pH range 2-12 (Comparative Example 1)
Type: physicochemical
Description: The following example employs immediate-release tablets of tetrabenazine, in contrast to the controlled-release tablets of the present invention, to determine the solubility of tetrabenazine across the pH range 2-12.
The dissolution of tetrabenazine 12.5 mg and 25 mg immediate-release tablets was conducted in 0.1 M hydrochloric acid solution (pH 1.5).
The solubility of tetrabenazine was determined across the pH range 2-12 in water, adjusted with hydrochloric acid/sodium hydroxide as necessary and if feasible complete dissolutions at pH 7.0 and pH 12.
All samples were protected from light throughout the experiment.

solubility (between pH 4 and pH 12): approximately 3.0 mg/100 ml | solubility category (between pH 4 and pH 12): practically insoluble | solubility category (pH 2): slightly soluble | solubility (pH 3): approximately 4.0 mg/100 ml | solubility category (pH 3): practically insoluble | solubility category (pH range of 3-12): practically insoluble
SMILES: COc1cc2c(cc1OC)C1CC(=O)C(CC(C)C)CN1CC2 (stereo not drawn) [tetrabenazine, 1,3,4,6,7,11b-hexahydro-9,10-dimethoxy-3-(2-methylpropyl)-2H-benzo(a)quinolizin-2-one]
